From patent publication US20230220313A1, “COMPOSITION AND METHOD FOR INACTIVATING A VIRUS” (RNASSIST LIMITED, priority 2020, published 2023)
Where a name gives a salt, the structure may show the parent alone.

System: SARS-CoV-2
Experiment: not given
Conditions: Welch et al (2020) J. Clin. Microbiology; cited from earlier work

| Molecule | inactivation of SARS-CoV-2 |
| --- | --- |
| N=C(N)N [Guanidine HCl] | not completely inactivated |
| N#CS.N=C(N)N [Guanidine thiocyanate] | not completely inactivated |
| CCCCCCCCCCCCOS(=O)(=O)[O-].[Na+] [SDS] | not completely inactivated |
| Triton X-100 | not completely inactivated |

System: not listed separately
Experiment: Viscosity by falling ball method
Type: physicochemical
Conditions: falling ball method at 20° C.

| Molecule | viscosity [cP] |
| --- | --- |
| COCCOCCOCCOCCOC [Tetraethylene glycol dimethyl ether] | 3.3 |
| COCCOCCOCCOCCO [Tetraethylene glycol monomethyl ether] | 12 |
